The test system of experiment [1] is 5-enolpyruvylshikimate-3-phosphate synthase (EPSPS), glyphosate-resistant (R) and very resistant (VR) populations. The settings on record: read-out: I50, glyphosate 0-1000 μM, stated gain. From the text:
EPSPS activity in leaf extract, inorganic phosphate release on 5-enolpyruvylshikimate-3-phosphate synthase (EPSPS), glyphosate-resistant (R) and very resistant (VR) populations

In experiment [2] the test system is T1, 5-enolpyruvylshikimate-3-phosphate synthase (EPSPS), glyphosate-susceptible populations.
T1 construct: native enzyme in leaf extract; hexaploid species, homoeologous EPSPS copies not distinguished
Briefly: EPSPS activity in leaf extract, inorganic phosphate release. The class given is biochemical, Echinochloa crus-galli. Particulars: population E2 (susceptible); glyphosate 0-1000 μM; read-out: I50.

Where two headings read alike, the source gives them in different places.

In the case of `O=C(O)CNCP(=O)(O)O` [glyphosate], the IC50 was 11.7 µM in experiment [1] (population E7); 18.1 µM in experiment [1] (population E9); 54.8 µM in experiment [1] (population E10, possible EPSPS overexpression); 45.6 µM in experiment [1] (population E12, possible EPSPS overexpression); 0.8 µM in experiment [2].

The values above are taken from article PMC7928338, “Distribution of Glyphosate-Resistance in Echinochloa crus-galli Across Agriculture Areas in the Iberian Peninsula” (Frontiers in Plant Science, 2021).
